In PubChem BioAssay (NCI):
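Protocol summary: plate cells (96-well), add compound at 5 concentrations, incubate 48 h, interpolate endpoints linearly. At the TGI there is no net growth.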

Columns and labels:
Assay in all cases: NCI tumour cell line growth inhibition, 48 h
786-0 renal = system: 786-0 renal
A498 renal = system: A498 renal
A549 NSCLC = system: A549 NSCLC
ACHN renal = system: ACHN renal
CAKI-1 renal = system: CAKI-1 renal
CCRF-CEM leukemia = system: CCRF-CEM leukemia
COLO 205 colon = system: COLO 205 colon
DLD-1 colon = system: DLD-1 colon
DMS 114 small cell lung = system: DMS 114 small cell lung
DMS 273 small cell lung = system: DMS 273 small cell lung
EKVX NSCLC = system: EKVX NSCLC
HCC-2998 colon = system: HCC-2998 colon
HCT-15 colon = system: HCT-15 colon
HL-60(TB) leukemia = system: HL-60(TB) leukemia
HOP-18 NSCLC = system: HOP-18 NSCLC
HOP-62 NSCLC = system: HOP-62 NSCLC
HT29 colon = system: HT29 colon
IGROV1 ovarian = system: IGROV1 ovarian
K-562 leukemia = system: K-562 leukemia
KM12 colon = system: KM12 colon
KM20L2 colon = system: KM20L2 colon
LOX IMVI melanoma = system: LOX IMVI melanoma
LXFL 529 NSCLC = system: LXFL 529 NSCLC
M14 melanoma = system: M14 melanoma
M19-MEL melanoma = system: M19-MEL melanoma
MALME-3M melanoma = system: MALME-3M melanoma
MOLT-4 leukemia = system: MOLT-4 leukemia
NCI-H226 lung = system: NCI-H226 lung
NCI-H23 lung = system: NCI-H23 lung
NCI-H460 lung = system: NCI-H460 lung
NCI-H522 lung = system: NCI-H522 lung
OVCAR-3 ovarian = system: OVCAR-3 ovarian
OVCAR-4 ovarian = system: OVCAR-4 ovarian
OVCAR-5 ovarian = system: OVCAR-5 ovarian
OVCAR-8 ovarian = system: OVCAR-8 ovarian
RPMI-8226 leukemia = system: RPMI-8226 leukemia
RXF 393 renal = system: RXF 393 renal
RXF-631 renal = system: RXF-631 renal
SF-268 CNS = system: SF-268 CNS
SF-295 CNS = system: SF-295 CNS
SF-539 CNS = system: SF-539 CNS
SK-MEL-2 melanoma = system: SK-MEL-2 melanoma
SK-MEL-28 melanoma = system: SK-MEL-28 melanoma
SK-MEL-5 melanoma = system: SK-MEL-5 melanoma
SK-OV-3 ovarian = system: SK-OV-3 ovarian
SN12C renal = system: SN12C renal
SNB-19 CNS = system: SNB-19 CNS
SNB-75 CNS = system: SNB-75 CNS
SW-620 colon = system: SW-620 colon
TK-10 renal = system: TK-10 renal
U251 CNS = system: U251 CNS
UACC-257 melanoma = system: UACC-257 melanoma
UACC-62 melanoma = system: UACC-62 melanoma
UO-31 renal = system: UO-31 renal
XF 498 CNS = system: XF 498 CNS
HCT-116 colon = system: HCT-116 colon
HOP-92 NSCLC = system: HOP-92 NSCLC
SNB-78 CNS = system: SNB-78 CNS

Measured: TGI

CC1=C(C(=O)Nc2ccccc2C)C(c2ccc([N+](=O)[O-])cc2)C(C(=O)Nc2ccccc2C)=C(C)N1
80.5 µM: A498 renal
86.5 µM: SNB-75 CNS
47 µM: HL-60(TB) leukemia
> 100 µM: 786-0 renal | A549 NSCLC | ACHN renal | CAKI-1 renal | COLO 205 colon | DLD-1 colon | DMS 114 small cell lung | DMS 273 small cell lung | EKVX NSCLC | HCC-2998 colon | HCT-15 colon | HOP-18 NSCLC | HOP-62 NSCLC | HT29 colon | IGROV1 ovarian | K-562 leukemia | KM12 colon | KM20L2 colon | LOX IMVI melanoma | LXFL 529 NSCLC | M14 melanoma | M19-MEL melanoma | MALME-3M melanoma | MOLT-4 leukemia | NCI-H226 lung | NCI-H23 lung | NCI-H460 lung | NCI-H522 lung | OVCAR-3 ovarian | OVCAR-4 ovarian | OVCAR-5 ovarian | OVCAR-8 ovarian | RPMI-8226 leukemia | RXF-631 renal | SF-268 CNS | SF-295 CNS | SF-539 CNS | SK-MEL-2 melanoma | SK-MEL-28 melanoma | SK-MEL-5 melanoma | SK-OV-3 ovarian | SN12C renal | SNB-19 CNS | SW-620 colon | TK-10 renal | U251 CNS | UACC-257 melanoma | UACC-62 melanoma | UO-31 renal | XF 498 CNS
88.2 µM: RXF 393 renal
90.5 µM: CCRF-CEM leukemia

CC(=O)NNc1nc(C)c(C(/C=C/c2ccc(Cl)cc2)=N\NS(=O)(=O)c2ccc(C)cc2)s1
> 100 µM: 786-0 renal | A498 renal | A549 NSCLC | ACHN renal | CAKI-1 renal | CCRF-CEM leukemia | COLO 205 colon | DLD-1 colon | DMS 273 small cell lung | EKVX NSCLC | HCC-2998 colon | HCT-116 colon | HCT-15 colon | HL-60(TB) leukemia | HOP-18 NSCLC | HOP-62 NSCLC | HOP-92 NSCLC | HT29 colon | IGROV1 ovarian | K-562 leukemia | KM12 colon | KM20L2 colon | LOX IMVI melanoma | LXFL 529 NSCLC | M14 melanoma | M19-MEL melanoma | MALME-3M melanoma | MOLT-4 leukemia | NCI-H226 lung | NCI-H23 lung | NCI-H460 lung | NCI-H522 lung | OVCAR-3 ovarian | OVCAR-4 ovarian | OVCAR-5 ovarian | OVCAR-8 ovarian | RPMI-8226 leukemia | RXF 393 renal | RXF-631 renal | SF-268 CNS | SF-295 CNS | SF-539 CNS | SK-MEL-2 melanoma | SK-MEL-28 melanoma | SK-MEL-5 melanoma | SK-OV-3 ovarian | SN12C renal | SNB-19 CNS | SNB-75 CNS | SNB-78 CNS | SW-620 colon | TK-10 renal | U251 CNS | UACC-257 melanoma | UACC-62 melanoma | UO-31 renal | XF 498 CNS
